Data taken from ChEMBL document CHEMBL1201862, “PubChem BioAssay data set” (2004).
One block for each molecule: values may come before it. The source made the active and inactive calls.

How the values were obtained:
Escherichia coli [1] = test: microbe, parasite or virus in culture
Escherichia coli [2] = test: microbe, parasite or virus in culture; remark: listed apart in the source
[3] = molecular target: T1, Aryl hydrocarbon receptor (Homo sapiens, UniProt P35869); conditions: Potency;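 further: confirmatory quantitative high-throughput screen measuring activation of the AhR signaling pathway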
T1 sequence (P35869 whole entry): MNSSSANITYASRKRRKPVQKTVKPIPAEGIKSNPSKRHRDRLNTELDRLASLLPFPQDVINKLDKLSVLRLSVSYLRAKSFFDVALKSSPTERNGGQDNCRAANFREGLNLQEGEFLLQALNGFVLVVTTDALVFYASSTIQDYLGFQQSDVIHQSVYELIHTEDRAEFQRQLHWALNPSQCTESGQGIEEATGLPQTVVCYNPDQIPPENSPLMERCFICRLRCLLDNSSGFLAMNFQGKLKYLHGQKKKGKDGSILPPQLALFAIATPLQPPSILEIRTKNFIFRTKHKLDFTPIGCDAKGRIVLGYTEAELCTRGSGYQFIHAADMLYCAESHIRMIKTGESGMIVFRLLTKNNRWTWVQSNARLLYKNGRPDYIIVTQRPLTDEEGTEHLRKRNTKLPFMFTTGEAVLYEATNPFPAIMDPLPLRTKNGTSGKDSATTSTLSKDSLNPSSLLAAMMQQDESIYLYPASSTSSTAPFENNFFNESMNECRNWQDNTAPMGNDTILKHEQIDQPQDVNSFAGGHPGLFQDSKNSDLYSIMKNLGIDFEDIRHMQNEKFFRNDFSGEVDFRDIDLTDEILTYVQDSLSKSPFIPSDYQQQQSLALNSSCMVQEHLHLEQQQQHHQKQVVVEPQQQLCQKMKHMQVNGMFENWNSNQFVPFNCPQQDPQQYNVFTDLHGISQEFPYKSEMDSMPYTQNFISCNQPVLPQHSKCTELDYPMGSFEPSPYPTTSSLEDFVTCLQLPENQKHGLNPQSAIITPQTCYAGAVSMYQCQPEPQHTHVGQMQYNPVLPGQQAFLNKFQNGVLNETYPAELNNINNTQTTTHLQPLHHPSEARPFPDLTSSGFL

[4] = molecular target: T2, Low molecular weight phosphotyrosine protein phosphatase (Homo sapiens, UniProt P24666); type: functional; conditions: read-out: IC50_Mean
T2 sequence (P24666 whole entry): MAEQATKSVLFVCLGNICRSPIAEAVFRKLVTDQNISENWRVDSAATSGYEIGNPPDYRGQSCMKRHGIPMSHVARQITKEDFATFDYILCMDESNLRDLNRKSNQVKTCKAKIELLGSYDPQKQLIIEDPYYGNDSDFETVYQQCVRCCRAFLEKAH

[5] = molecular target: T2, Low molecular weight phosphotyrosine protein phosphatase; type: functional; conditions: read-out: IC50_Mean; remark: listed apart in the source
[6] = molecular target: Mitogen-activated protein kinase kinase kinase kinase 4 (Homo sapiens, UniProt O95819); type: functional
Chain of Mitogen-activated protein kinase kinase kinase kinase 4 (O95819 whole entry): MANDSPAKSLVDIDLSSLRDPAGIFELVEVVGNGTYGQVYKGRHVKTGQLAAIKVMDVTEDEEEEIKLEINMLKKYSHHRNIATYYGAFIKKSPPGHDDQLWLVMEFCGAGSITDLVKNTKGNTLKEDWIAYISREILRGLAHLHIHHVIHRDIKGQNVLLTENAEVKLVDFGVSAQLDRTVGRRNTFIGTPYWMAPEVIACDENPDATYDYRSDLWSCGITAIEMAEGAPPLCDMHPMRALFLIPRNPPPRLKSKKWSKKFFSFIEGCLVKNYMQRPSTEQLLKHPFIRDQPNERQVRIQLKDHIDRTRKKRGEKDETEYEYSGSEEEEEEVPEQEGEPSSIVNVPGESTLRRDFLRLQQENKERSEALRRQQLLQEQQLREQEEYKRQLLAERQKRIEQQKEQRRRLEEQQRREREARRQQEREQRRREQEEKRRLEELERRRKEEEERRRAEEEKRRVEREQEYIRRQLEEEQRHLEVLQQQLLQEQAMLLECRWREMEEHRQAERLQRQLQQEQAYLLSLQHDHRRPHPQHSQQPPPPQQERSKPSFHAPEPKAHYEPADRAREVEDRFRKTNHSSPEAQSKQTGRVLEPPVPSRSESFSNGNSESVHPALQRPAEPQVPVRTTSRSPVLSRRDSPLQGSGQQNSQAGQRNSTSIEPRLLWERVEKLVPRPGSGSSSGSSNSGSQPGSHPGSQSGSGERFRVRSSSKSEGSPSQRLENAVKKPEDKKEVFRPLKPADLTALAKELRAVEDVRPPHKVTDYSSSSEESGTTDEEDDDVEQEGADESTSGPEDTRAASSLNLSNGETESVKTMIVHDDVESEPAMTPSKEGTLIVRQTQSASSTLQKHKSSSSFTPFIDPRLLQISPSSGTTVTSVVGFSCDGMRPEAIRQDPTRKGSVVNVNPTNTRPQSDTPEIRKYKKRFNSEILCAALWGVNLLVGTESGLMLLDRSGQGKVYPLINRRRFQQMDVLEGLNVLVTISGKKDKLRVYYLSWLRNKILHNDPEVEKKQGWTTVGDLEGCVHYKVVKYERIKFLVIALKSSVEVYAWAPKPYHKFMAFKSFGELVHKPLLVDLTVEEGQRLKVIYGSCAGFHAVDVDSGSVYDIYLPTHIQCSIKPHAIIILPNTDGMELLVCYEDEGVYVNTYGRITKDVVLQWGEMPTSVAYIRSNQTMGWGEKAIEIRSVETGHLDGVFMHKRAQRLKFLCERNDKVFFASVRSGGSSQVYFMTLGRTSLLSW

[7] = molecular target: T3, Interleukin-1 receptor-associated kinase 4 (Homo sapiens, UniProt Q9NWZ3); type: functional
T3 sequence (Q9NWZ3 whole entry): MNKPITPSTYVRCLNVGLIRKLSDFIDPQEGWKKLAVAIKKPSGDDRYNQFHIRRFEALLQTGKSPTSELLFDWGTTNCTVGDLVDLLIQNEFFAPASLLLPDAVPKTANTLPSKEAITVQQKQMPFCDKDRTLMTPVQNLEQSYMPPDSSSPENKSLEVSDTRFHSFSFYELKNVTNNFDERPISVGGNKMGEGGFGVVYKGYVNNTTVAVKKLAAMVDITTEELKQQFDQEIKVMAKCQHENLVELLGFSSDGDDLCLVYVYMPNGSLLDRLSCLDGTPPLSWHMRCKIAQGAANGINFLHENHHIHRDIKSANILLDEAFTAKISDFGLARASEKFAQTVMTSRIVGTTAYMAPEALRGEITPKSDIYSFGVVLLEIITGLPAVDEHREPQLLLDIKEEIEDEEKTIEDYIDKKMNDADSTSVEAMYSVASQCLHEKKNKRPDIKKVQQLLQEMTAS

[8] = molecular target: Glycogen synthase kinase-3 beta (Homo sapiens, UniProt P49841); type: functional;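 further: value comes from a broad kinome profiling panel, with GSK3B as the panel member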
Chain of Glycogen synthase kinase-3 beta (P49841 whole entry): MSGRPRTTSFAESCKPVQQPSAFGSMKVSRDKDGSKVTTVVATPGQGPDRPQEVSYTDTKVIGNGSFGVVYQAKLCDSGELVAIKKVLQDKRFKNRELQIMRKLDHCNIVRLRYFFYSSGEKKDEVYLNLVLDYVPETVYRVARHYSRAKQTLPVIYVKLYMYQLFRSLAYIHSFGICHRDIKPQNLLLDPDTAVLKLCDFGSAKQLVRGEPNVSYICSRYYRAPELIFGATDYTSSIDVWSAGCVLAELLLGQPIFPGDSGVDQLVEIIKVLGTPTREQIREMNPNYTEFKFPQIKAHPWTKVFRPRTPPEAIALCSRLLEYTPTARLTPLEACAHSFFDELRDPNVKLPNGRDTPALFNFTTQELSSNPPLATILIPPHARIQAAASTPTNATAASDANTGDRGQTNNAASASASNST

[9] = molecular target: MAP kinase-interacting serine/threonine-protein kinase 2 (Homo sapiens, UniProt Q9HBH9); type: functional
Chain of MAP kinase-interacting serine/threonine-protein kinase 2 (Q9HBH9 whole entry): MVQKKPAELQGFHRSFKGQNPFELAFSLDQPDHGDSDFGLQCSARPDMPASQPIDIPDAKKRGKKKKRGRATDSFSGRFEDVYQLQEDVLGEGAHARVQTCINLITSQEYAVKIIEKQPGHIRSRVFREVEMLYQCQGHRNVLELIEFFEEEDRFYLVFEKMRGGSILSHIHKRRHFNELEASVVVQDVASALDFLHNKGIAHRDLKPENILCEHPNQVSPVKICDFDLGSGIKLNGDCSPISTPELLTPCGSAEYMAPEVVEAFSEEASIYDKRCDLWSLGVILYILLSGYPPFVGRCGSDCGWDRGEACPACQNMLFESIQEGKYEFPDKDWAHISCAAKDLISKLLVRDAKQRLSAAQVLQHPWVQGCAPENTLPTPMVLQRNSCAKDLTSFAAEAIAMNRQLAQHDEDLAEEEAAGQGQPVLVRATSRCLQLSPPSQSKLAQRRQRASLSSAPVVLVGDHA

[10] = molecular target: Dual specificity protein kinase CLK4 (Homo sapiens, UniProt Q9HAZ1); type: functional
Chain of Dual specificity protein kinase CLK4 (Q9HAZ1 whole entry): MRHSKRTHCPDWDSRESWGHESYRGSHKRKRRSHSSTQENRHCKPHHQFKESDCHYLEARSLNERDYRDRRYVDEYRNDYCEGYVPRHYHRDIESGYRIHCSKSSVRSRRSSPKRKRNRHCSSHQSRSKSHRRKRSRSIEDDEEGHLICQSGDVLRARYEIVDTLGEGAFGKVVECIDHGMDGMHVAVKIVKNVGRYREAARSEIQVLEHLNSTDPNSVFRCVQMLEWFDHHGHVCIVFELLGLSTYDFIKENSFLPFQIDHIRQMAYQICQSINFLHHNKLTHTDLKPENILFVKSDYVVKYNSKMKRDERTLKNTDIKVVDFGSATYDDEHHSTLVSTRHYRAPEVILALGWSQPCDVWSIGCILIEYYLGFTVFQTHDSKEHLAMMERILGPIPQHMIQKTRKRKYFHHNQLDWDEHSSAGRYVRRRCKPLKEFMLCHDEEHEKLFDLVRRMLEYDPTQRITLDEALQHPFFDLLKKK

[11] = molecular target: Homeodomain-interacting protein kinase 2 (Homo sapiens, UniProt Q9H2X6); type: functional;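 further: measured within a kinome-wide kinase profiling panel, HIPK2 being one panel member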
Chain of Homeodomain-interacting protein kinase 2 (Q9H2X6 whole entry): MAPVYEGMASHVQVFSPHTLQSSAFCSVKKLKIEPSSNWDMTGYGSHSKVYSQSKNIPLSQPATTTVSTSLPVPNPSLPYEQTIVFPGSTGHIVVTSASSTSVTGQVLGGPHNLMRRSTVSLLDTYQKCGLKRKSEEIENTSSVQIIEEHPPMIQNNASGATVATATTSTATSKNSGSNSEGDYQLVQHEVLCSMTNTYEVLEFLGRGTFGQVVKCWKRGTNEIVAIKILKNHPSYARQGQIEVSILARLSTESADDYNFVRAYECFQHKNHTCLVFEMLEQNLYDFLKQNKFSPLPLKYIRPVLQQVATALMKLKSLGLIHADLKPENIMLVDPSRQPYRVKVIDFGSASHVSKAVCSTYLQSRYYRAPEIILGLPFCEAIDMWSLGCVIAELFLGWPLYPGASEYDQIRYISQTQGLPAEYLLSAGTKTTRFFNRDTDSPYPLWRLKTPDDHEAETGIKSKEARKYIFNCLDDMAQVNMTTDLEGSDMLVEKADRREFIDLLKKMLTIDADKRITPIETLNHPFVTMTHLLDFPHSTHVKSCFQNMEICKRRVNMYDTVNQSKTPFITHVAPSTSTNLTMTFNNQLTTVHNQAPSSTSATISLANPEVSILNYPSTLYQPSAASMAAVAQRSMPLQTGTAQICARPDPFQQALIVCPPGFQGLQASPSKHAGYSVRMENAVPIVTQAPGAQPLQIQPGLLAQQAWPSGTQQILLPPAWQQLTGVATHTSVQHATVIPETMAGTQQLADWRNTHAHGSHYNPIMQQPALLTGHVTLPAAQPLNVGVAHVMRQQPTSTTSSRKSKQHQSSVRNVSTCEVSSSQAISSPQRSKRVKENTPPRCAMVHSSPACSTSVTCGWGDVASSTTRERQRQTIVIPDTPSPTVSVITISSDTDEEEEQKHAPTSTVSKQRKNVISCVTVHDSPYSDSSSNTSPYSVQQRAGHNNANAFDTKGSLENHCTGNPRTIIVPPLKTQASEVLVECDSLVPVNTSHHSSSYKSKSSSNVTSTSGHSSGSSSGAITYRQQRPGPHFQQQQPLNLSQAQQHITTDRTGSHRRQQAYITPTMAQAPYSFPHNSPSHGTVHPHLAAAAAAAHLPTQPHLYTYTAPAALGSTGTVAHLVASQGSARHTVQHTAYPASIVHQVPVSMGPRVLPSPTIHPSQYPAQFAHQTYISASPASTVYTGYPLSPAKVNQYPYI

[12] = molecular target: Cell division cycle 7-related protein kinase (Homo sapiens, UniProt O00311); type: functional;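 further: value obtained from a kinome-wide kinase panel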
Chain of Cell division cycle 7-related protein kinase (O00311 whole entry): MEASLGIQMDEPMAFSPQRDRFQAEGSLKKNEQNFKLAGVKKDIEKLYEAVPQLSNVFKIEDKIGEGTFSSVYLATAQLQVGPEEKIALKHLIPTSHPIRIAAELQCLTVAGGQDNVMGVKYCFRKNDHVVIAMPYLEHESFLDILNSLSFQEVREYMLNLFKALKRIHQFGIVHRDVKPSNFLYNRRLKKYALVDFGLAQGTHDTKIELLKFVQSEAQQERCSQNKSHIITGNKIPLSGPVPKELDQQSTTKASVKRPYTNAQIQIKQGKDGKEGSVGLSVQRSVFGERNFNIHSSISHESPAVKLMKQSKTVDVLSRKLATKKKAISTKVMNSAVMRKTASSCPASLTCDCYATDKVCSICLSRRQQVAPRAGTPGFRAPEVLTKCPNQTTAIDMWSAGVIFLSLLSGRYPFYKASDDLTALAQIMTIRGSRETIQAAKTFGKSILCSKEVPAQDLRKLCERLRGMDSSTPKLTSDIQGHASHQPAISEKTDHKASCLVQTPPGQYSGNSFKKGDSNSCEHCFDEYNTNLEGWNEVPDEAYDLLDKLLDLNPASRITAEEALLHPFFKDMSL

[13] = molecular target: Serine/threonine-protein kinase pim-1 (Homo sapiens, UniProt P11309); type: functional
Chain of Serine/threonine-protein kinase pim-1 (P11309 whole entry): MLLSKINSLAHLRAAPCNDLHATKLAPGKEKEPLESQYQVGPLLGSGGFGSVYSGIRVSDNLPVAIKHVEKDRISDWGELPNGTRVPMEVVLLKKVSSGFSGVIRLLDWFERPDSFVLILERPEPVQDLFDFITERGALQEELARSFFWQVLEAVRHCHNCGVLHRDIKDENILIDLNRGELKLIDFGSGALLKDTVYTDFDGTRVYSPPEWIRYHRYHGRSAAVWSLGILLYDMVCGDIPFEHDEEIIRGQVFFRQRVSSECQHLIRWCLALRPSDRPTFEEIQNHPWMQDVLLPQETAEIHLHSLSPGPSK

[14] = molecular target: DNA dC->dU-editing enzyme APOBEC-3G (Homo sapiens, UniProt Q9HC16); test: inhibition of APOBEC3G ssDNA deamination – biochemical, fluorescence, single-stranded DNA substrate, SAR follow-up (AID 602136); type: functional; conditions: read-out: IC50_Mean
[15] = molecular target: DNA dC->dU-editing enzyme APOBEC-3A (Homo sapiens, UniProt P31941); test: SAR analysis of small molecule inhibitors of APOBEC3A DNA Deaminase via a fluorescence-based single-stranded DNA deaminase assay.; type: functional; conditions: read-out: IC50_Mean
Chain of DNA dC->dU-editing enzyme APOBEC-3A (P31941 whole entry): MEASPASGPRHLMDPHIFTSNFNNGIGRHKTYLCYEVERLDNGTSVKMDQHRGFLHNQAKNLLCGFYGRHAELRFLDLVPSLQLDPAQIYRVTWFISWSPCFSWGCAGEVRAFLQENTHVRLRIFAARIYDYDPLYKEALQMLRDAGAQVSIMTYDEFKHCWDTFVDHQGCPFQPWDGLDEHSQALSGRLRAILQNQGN

[16] = molecular target: cAMP-dependent protein kinase catalytic subunit alpha (Homo sapiens, UniProt P17612); type: functional
Streptococcus = test: GAS UMAA2166 growth inhibition – luminescence, BacTiterGlo, counter-screen for streptokinase expression inhibitor project, dose response (AID 1915); type: functional, organism-based;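 further: potency for reduction of bacterial viability or growth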
[17] = test system: Streptococcus sp. 'group A'; test: Streptococcus pyogenes SK(-)GAS viability under kanamycin – luminescence, BacTiterGlo, confirmation, counter-screen for streptokinase expression inhibitor project, dose response (AID 1900); type: functional, organism-based

SMILES: CC(C)(C)c1ccc(S(=O)(=O)N2CCSC2)cc1
- AC50 (Escherichia coli [1]): 37100 nM (active)
- AC50 (Escherichia coli [2]): 31300 nM (active)

SMILES: CCOP(=S)(OCC)Oc1nc(Cl)n(C(C)C)n1
- AC50 [3]: 39800 nM (inconclusive)

- IC50 [4]: 7210 nM (active)
- IC50 [5]: 1350 nM (active)
SMILES: O=C1C(=Cc2cn(-c3ccccc3)nc2-c2ccc(OCc3ccc(Cl)cc3)cc2)SC(=S)N1CCS(=O)(=O)O

- Ki [6]: 158 nM (active)
- Ki [7]: > 10000 nM (inactive)
- Ki [8]: 12.6 nM (active)
- Ki [9]: 158 nM (active)
- Ki [10]: 7.94 nM (active)
- Ki [11]: 2510 nM (active)
- Ki [12]: 2.51 nM (active)
- Ki [13]: 251 nM (active)
SMILES: Cc1ccccc1-c1c(-c2ccc3[nH]nc(C)c3c2)nnn1Cc1ccccc1

SMILES: COCc1nnc(NC(=O)Cc2ccc(Cl)cc2)s1
- IC50 [14]: > 99000 nM (inactive)
- IC50 [15]: > 99000 nM (inactive)

- Ki [6]: 20 nM (active)
- Ki [7]: 200 nM (active)
- Ki [8]: 12.6 nM (active)
- Ki [9]: 10 nM (active)
- Ki [11]: 20 nM (active)
- Ki [12]: 1.26 nM (active)
- Ki [13]: 501 nM (active)
- Ki [16]: 63.1 nM (active)
SMILES: FC(F)(F)c1ccccc1CNc1nccc(-c2c[nH]c3ncccc23)n1

SMILES: CN1CCN(c2c(F)cc3c(=O)c(C(=O)O)cn4c3c2OCN4C)CC1 [MARBOFLOXACIN]
- EC50 (Streptococcus): 3070 nM (active)
- AC50 (Escherichia coli [1]): 1120 nM (active)
- EC50 [17]: 2790 nM (active)
- AC50 (Escherichia coli [2]): 4630 nM (active)
